# Patent publication US10023591B2, “Heterocyclic derivatives and use thereof” (C&C RESEARCH LABORATORIES, priority 2014, dated 2018)
# Tests used:
# [1] = test system: STAT1; assay: STAT1 reporter gene assay (luciferase), U2OS stable cell line pGL4-STAT1-TA-luc, IFN-γ stimulation; type: cell-based, human; conditions: Homo sapiens, IFN-γ 50 ng/mL, 8 hours, read-out: IC50 (μM) pSTAT1
# Experimental: 1-2) Experiment on the Inhibition of STAT1 Activity
# A human osteosarcoma cell line (U2OS stable cell line; pGL4-STAT1-TA-luc), which contains a stably operating STAT1 promoter, was cultured in McCoy 5′A medium (Cat No. 16600, Life Technologies) containing 10% FBS (Cat No. SH30396, Thermo Scientific) and 1000 μg/mL G418 solution (Cat No. 04 727 894 001, Roche). The reporter gene assay using U2OS stable cell line was performed in McCoy 5′A medium containing 10% FBS without G-418 solution. U2OS stable cells were plated in two (2) white 96-well plates with 25,000 cells/50 pt in each well. The cells were cultured at 37° C., under 5% CO2 for 24 hours, and then treated with the compounds listed in Examples which were diluted in various concentrations. Subsequently, IFN-γ was added to each well with a final concentration of 50 ng/mL. Upon completion of the treatment with the compounds and IFN-γ, the cells were cultured at 37° C., under 5% CO2 for 8 hours. The plates were observed under microscope and drug precipitation and particular findings were investigated and recorded.
# (§1) The luciferase assay and the cell viability assay were performed respectively with one of two plates. For the luciferase assay, the liquid media in the 96-well plate was removed, and then, 20 μL of passive cell lysis buffer was added to each well. After shaking the plate for 30 minutes, luciferase activities of each well were measured in a PHERAstar™ microplate reader (BMG LABTECH) using a luciferase assay system (Cat No. E1501, Promega). For the cell viability assay, the 96-well plate was placed at room temperature for 30 minutes, added with 20 μL/well of CellTiter-Glo solution (Cat No. G7573, Promega), and shaken for 10 minutes in order to measure cytotoxicity caused by the compounds listed in Examples with a PHERAstar™ microplate reader (BMG LABTECH). Wells without 0.1% DMSO and stimulation were used as a negative control and wells with 0.1% DMSO and stimulation were used as a positive control.
# (§2) The results of evaluation on the inhibitory effect of the compounds listed in the Examples on the dimerization of STAT3 and STAT1 obtained via the STAT3 and STAT1 reporter gene assays are shown in Table 9 below.
# [2] = test system: STAT3; assay: STAT3 reporter gene assay (luciferase), LNCaP stable cell line pSTAT3-TA-luc, IL-6 stimulation; type: cell-based, human; conditions: Homo sapiens
# Experimental: 1-1) Experiment on the Inhibition of STAT3 Activity
# A human prostate cancer cell line (LNCaP stable cell line; plasmid pSTAT3-TA-luc), which contains a stably operating STAT3 promoter, was cultured in RPMI1640 medium (Cat No. 11875, Life Technologies) containing 10% fetal bovine serum (FBS) (Cat No. SH30396, Thermo Scientific) and 150 μg/mL G-418 solution (Cat No. 04 727 894 001, Roche). The reporter gene assay using LNCaP stable cell line was performed in RPMI1640 medium containing 3% DCC-FBS without G-418 solution. LNCaP stable cells were plated in two (2) white 96-well plates with 30,000 cells/50 μL in each well. The cells were cultured at 37° C., under 5% CO2 for 24 hours, and then treated with the compounds listed in Examples which were diluted in various concentrations. Subsequently, IL-6 was added to each well with a final concentration of 10 ng/mL. Upon completion of the treatment with the compounds and IL-6, the cells were cultured at 37° C., under 5% CO2 for 24 hours. The plates were observed under microscope and drug precipitation and particular findings were investigated and recorded.
# as §1, with “one of the two plates.” for “one of two plates.”, “then, 20 μL, of passive” for “then, 20 μL of passive”
# as §2
# [3] = test system: NCI-N87 stomach cancer cell line; assay: Cell growth inhibition assay, NCI-N87 (CellTiter-Glo); type: cell-based; conditions: Homo sapiens; NCI-N87, 5,000 cells/well, 96 hours
# Experimental: The inhibitory effects of the compounds of the present invention against the growth of cancer cells were evaluated as shown below. The cancer cell lines including prostate cancer cell lines (LNCaP, DU-145), stomach cancer cell line (NCI-N87), and breast cancer cell lines (MDA-MB-468) were cultured under the protocol provided by each supplier. A medium supplemented with 10 ng/mL of IL-6 was used for LNCaP, a prostate cancer cell line, when treated with a drug. Each type of cells to be used in experiments was sub-cultured in a 96-well plate by counting the exact number of cells using Tali™ Image-based Cytometer (Life Technologies). In a 96-well plate, DU-145 was employed with 3,000 cells/well; NCI-N87 was employed with 5,000 cells/well; and LNCaP and MDA-MB-468 were employed with 10,000 cells/well. The cells were treated with the compounds listed in Examples which were diluted in various concentrations. Upon completion of the compounds treatment, LNCaP, DU-145, NCI-N87 cells were cultured at 37° C. under 5% CO2 for 96 hours, and MDA-MB-468 cells were cultured at 37° C. in air for 96 hours. Subsequently, the cells were observed under microscope and drug precipitation and particular findings were investigated and recorded. And then, the 96-well plate was placed at room temperature for 30 minutes, added with 20 pt/well of CellTiter-Glo solution (Cat No. G7573, Promega) and shaken for 10 minutes, followed by being subjected to the measurement using PHERAstar™ microplate reader (BMG LABTECH) according to the supplier's general luminometer protocol. Wells where only culture liquid added without cell plating were used as a negative control, whereas wells where culture liquid containing 0.1% DMSO instead of the compounds listed in Examples were used as a positive control.
SMILES,IC50 [1] [µM],IC50 [2] [µM],IC50 [3] [µM]
"CC#CCOc1cc(OC(F)(F)F)cc(C(C)(C)c2cc(Cl)cc(NC(=O)c3cc4cc(C(C)(C)S(C)(=O)=O)ccc4s3)c2)c1 [Example 10, N-(3-(2-(3-(but-2-yn-1-yloxy)-5-(trifluoromethoxy)phenyl)propan-2-yl)-5-chlorophenyl)-5-(2-(methylsulfonyl)propan-2-yl)benzo[b]thiophene-2-carboxamide]",> 50,0.018,0.01
"CC(C)(c1ccc2sc(C(=O)Nc3cc(Cl)nc(N4CCN5CCCC5C4)c3)cc2c1)S(C)(=O)=O (stereo not drawn) [Example 104, N-(2-chloro-6-(hexahydropyrrolo[1,2-a]pyrazin-2(1H)-yl)pyridin-4-yl)-5-(2-(methylsulfonyl)propan-2-yl)benzo[b]thiophene-2-carboxamide]",8.7,1.4,1.7
"CC(C)(c1ccc2sc(C(=O)Nc3cc(Cl)nc(N4CCC5CCCCC5C4)c3)cc2c1)S(C)(=O)=O (stereo not drawn) [Example 108, N-(2-chloro-6-(octahydroisoquinolin-2(1H)-yl)pyridin-4-yl)-5-(2-(methylsulfonyl)propan-2-yl)benzo[b]thiophene-2-carboxamide]",> 50,0.085,0.13
"CC(C)(c1ccc2sc(C(=O)Nc3cc(Br)cc(Oc4ccc(Cl)cc4)c3)cc2c1)S(C)(=O)=O [Example 39, N-(3-bromo-5-(4-chlorophenoxy)phenyl)-5-(2-(methylsulfonyl)propan-2-yl)benzo[b]thiophene-2-carboxamide]",> 50,0.0089,0.031
"CC(C)(c1ccc2sc(C(=O)Nc3cc(Br)nc(Oc4ccc(Cl)cc4)c3)cc2c1)S(C)(=O)=O [Example 69, N-(2-bromo-6-(4-chlorophenoxy)pyridin-4-yl)-5-(2-(methylsulfonyl)propan-2-yl)benzo[b]thiophene-2-carboxamide]",> 50,0.01,0.015
"CCN1CCC2(CCN(c3cc(NC(=O)c4cc5cc(C(C)(C)S(C)(=O)=O)ccc5s4)cc(Cl)n3)C2)C1 (stereo not drawn) [Example 107, N-(2-chloro-6-(7-ethyl-2,7-diazaspiro[4.4]nonan-2-yl)pyridin-4-yl)-5-(2-(methylsulfonyl)propan-2-yl)benzo[b]thiophene-2-carboxamide]",33.5,> 10,5.5
"CC(C)(c1ccc2sc(C(=N)Nc3cc(Cl)cc(Oc4ccc(Cl)cc4)c3)cc2c1)S(C)(=O)=O [Example 103, N-(3-chloro-5-(4-chlorophenoxy)phenyl)-5-(2-(methylsulfonyl)propan-2-yl)benzo[b]thiophene-2-carboximidamide 2,2,2-trifluoroacetate]",> 50,0.18,1.3

# Further lines, results first:
IC50 [1] [µM],IC50 [2] [µM],IC50 [3] [µM],SMILES
> 50,1.3,2.4,"Cc1nn(C)c(C)c1Oc1cc(NC(=O)c2cc3cc(C(C)(C)S(C)(=O)=O)ccc3s2)cc(Cl)n1 [Example 111, N-(2-chloro-6-((1,3,5-trimethyl-1H-pyrazol-4-yl)oxy)pyridin-4-yl)-5-(2-(methylsulfonyl)propan-2-yl)benzo[b]thiophene-2-carboxamide]"
> 50,0.024,0.057,"COc1cc(Cl)cc(Oc2cc(NC(=O)c3cc4cc(C(C)(C)S(C)(=O)=O)ccc4s3)cc(Cl)n2)c1 [Example 70, N-(2-chloro-6-(3-chloro-5-methoxyphenoxy)pyridin-4-yl)-5-(2-(methylsulfonyl)propan-2-yl)benzo[b]thiophene-2-carboxamide]"
> 50,0.02,0.034,"CC(C)(c1ccc2sc(C(=O)Nc3cc(Cl)nc(Oc4cc(Cl)cc(Cl)c4)c3)cc2c1)S(C)(=O)=O [Example 62, N-(2-chloro-6-(3,5-dichlorophenoxy)pyridin-4-yl)-5-(2-(methylsulfonyl)propan-2-yl)benzo[b]thiophene-2-carboxamide]"
> 50,0.0093,0.068,"CC(C)(c1ccc2sc(C(=O)Nc3cc(Cl)nc(OC4CC=C(Cl)CC4)c3)cc2c1)S(C)(=O)=O (stereo not drawn) [Example 101, N-(2-chloro-6-((4-chlorocyclohex-3-en-1-yl)oxy)pyridin-4-yl)-5-(2-(methylsulfonyl)propan-2-yl)benzo[b]thiophene-2-carboxamide]"
18.9,0.32,1,"Cn1cc(Oc2cc(NC(=O)c3cc4cc(C(C)(C)S(C)(=O)=O)ccc4s3)cc(Cl)n2)cn1 [Example 112, N-(2-chloro-6-((1-methyl-1H-pyrazol-4-yl)oxy)pyridin-4-yl)-5-(2-(methylsulfonyl)propan-2-yl)benzo[b]thiophene-2-carboxamide]"
> 50,0.063,0.13,"Cc1cc(Oc2cc(NC(=O)c3cc4cc(C(C)(C)S(C)(=O)=O)ccc4s3)cc(Cl)n2)cs1 [Example 114, N-(2-chloro-6-((5-methylthiophen-3-yl)oxy)pyridin-4-yl)-5-(2-(methylsulfonyl)propan-2-yl)benzo[b]thiophene-2-carboxamide]"
> 50,0.05,0.2,"CC(C)(c1ccc2sc(C(=O)Nc3cc(Cl)nc(OC4CC5C=CC4C5)c3)cc2c1)S(C)(=O)=O (stereo not drawn) [Example 78, N-(2-(bicyclo[2.2.1]hept-5-en-2-yloxy)-6-chloropyridin-4-yl)-5-(2-(methylsulfonyl)propan-2-yl)benzo[b]thiophene-2-carboxamide]"
44.8,0.53,1.2,"Cn1nccc1Oc1cc(NC(=O)c2cc3cc(C(C)(C)S(C)(=O)=O)ccc3s2)cc(Cl)n1 [Example 110, N-(2-chloro-6-((1-methyl-1H-pyrazol-5-yl)oxy)pyridin-4-yl)-5-(2-(methylsulfonyl)propan-2-yl)benzo[b]thiophene-2-carboxamide]"
